Results taken from US12150973B2, “OCA-B peptide conjugates and methods of treatment” (priority 2018, dated 2024).

Key:
CD4 T cell = assay: Viability, morphology and expansion of peptide-treated CD4 T cells; type: cell-based; details: 25 μM peptide
Text: Peptides were designed overlapping the OCA-B surface responsible for Jmjd1a binding, and were synthesized as Tat-fusions for membrane permeability (FIG. 3A). […] Treated cells show no changes in viability, morphology or expansion (not shown). Peptide #2 was used for subsequent experiments.

primary CD4 T cells = assay: Il2 and Ifng expression in restimulated primary CD4 T cells (RT-qPCR); type: cell-based
Method: (§1) FIGS. 3A-D show OCA-B inhibitors and results using these peptides in primary CD4 T cells and in a NOD mouse model. […] Peptides #2 (SEQ ID NO: 2) and #3 (SEQ ID NO: 3) show efficacy. Arrows indicate position of mutant in FIG. 2C. Below: Il2 expression in primary CD4 T cells treated with 25 μM peptide #2 measured by RT-qPCR. […] In these animals, most pancreatic beta function is lost, and the diabetes arises from autoimmune inflammation (insulitis) in the pancreas, making the remaining beta cells nonfunctional.
Disclosed herein are methods that can be carried out to determine the efficacy of one or more peptides for their ability to block the interaction of OCA-B and Jmjd1a or Oct1. In some aspects, the method can be, for low-throughput studies, treating primary human or mouse CD4 T cells that have been previously stimulated and rested in culture with the test peptide (10-50 μM), and re-stimulating cells with CD3/CD28 antibodies in the presence of inhibitor. Efficacy can be determined by suppression of e.g., Il2 gene expression in T cells receiving a second stimulation, phenocopying the OCA-B germline deficient mouse (as shown in FIG. 3A). […]

female NOD mice = assay: NOD mouse model of newly manifested type 1 diabetes; type: in vivo; details: for pancreatic T cell infiltration (total numbers and percentages): flow cytometry; for pancreatic T cell infiltration (total numbers and percentages) / elevated blood glucose: 12 hr after final injection; for elevated blood glucose: female 14-18 week-old NOD mice, glucose newly risen above 225 mg/dL, three intravenous injections of 20 mg/kg spaced by 12 hr
Method: as §1
Blood collection occurred prior to 2nd injection and 12 hr after final injection. […] Il2 gene expression was measured by TaqMan RT-qPCR. […] FIGS. 9D and E show similar analysis conducted using pancreatic lymph nodes (PLNs).
The peptide was synthesized and purified for an in vivo experiment. T1D onset in NOD mice is spontaneous and acute, allowing the administration of the peptide as symptoms arise. Female 14-18 week-old NOD mice whose glucose levels were newly-risen above 225 mg/dL but were still below 275 mg/dL were treated with three intravenous injections of 20 mg/kg peptide or Tat-only peptide control. The peptide half-life in serum was predicted to be ˜5 hr, and therefore the injections were spaced by 12 hr. Twelve hours after the final injection, blood glucose was collected and flow cytometry performed on the pancreas and pancreatic lymph nodes (PLNs). Strikingly, the inhibitor reversed elevated blood glucose (FIG. 3B; also see, FIG. 9), pancreatic T cell infiltration (both total numbers and percentages, FIG. 3C and not shown; also see, FIG. 9) and pro-inflammatory IFNγ and IL-17A cytokine production (not shown). Control peptide at the same concentration had no effect. […] OCA-B levels in B cells are at least 50-fold higher than in T cells (Immgen), making it likely that the observed effects are due to competitive inhibition in T cells. […] This peptide was used as a proto-drug to assess function and possible side effects.

[1] = NOD mice, three intravenous injections of 20 mg/kg, pancreas
[2] = NOD mice, three intravenous injections of 20 mg/kg, PLNs

Row | Substance | changes in viability, morphology or expansion of treated cells (CD4 T cell) | Il2 and Ifng expression following CD4 T cell restimulation (primary CD4 T cells; 25 μM peptide, Tat-fusion, compared with OCA-B null phenotype) | efficacy (Il2 expression in primary CD4 T cells) (primary CD4 T cells; peptides synthesized as Tat fusions, FIG. 3A) | pro-inflammatory IFNγ and IL-17A cytokine production (female NOD mice; [1]) | pancreatic T cell infiltration (total numbers and percentages) (female NOD mice; [1]) | T1D progression / emergence (female NOD mice; NOD mouse model, three injections, short time interval) | elevated blood glucose (female NOD mice) | T cell numbers or percentages in pancreatic lymph nodes (PLNs) (female NOD mice; [2]) | pro-inflammatory cytokine production in pancreatic lymph nodes (PLNs) (female NOD mice; [2])
1 | ARPYQGVRVKEPVKELLRRKRGH [Peptide #3, OCA-B fragment synthesized as Tat fusion] | no changes | phenocopies the OCA-B null phenotype | show efficacy |  |  |  |  |  | 
2 | GRKKRRQRRRGY [Tat-only peptide control, reference compound] |  |  |  | no effect | no effect | progress | no effect |  | 
3 | VKELLRRKRGH-GSG(linker)-GRKKRRQRRRGY(Tat) (VKELLRRKRGHGSGGRKKRRQRRRGY) [SEQ ID NO: 10, OCA-B/Jmjd1a interface peptide fused to Tat peptide through a GSG linker] |  |  |  |  | reduction |  | strong efficacy | unaffected | unaffected
